Results taken from article PMC10975047, “Antimicrobial Activity of 2-(Piperazin-1-yl)naphtho[2,3-d]thiazole-4,9-dione against Staphylococcus Strains” (Molecules, 2024).

Target: T1, DNA gyrase (Staphylococcus aureus, UniProt P0A0K8+P20831)
T1 construct: gene gyrA; with DNA gyrase subunit B (GyrB)
Experiment: DNA gyrase supercoiling assay (H19 dye fluorescence, ProFoldin kit)
Type: biochemical

T1 sequence (P0A0K8 2-644): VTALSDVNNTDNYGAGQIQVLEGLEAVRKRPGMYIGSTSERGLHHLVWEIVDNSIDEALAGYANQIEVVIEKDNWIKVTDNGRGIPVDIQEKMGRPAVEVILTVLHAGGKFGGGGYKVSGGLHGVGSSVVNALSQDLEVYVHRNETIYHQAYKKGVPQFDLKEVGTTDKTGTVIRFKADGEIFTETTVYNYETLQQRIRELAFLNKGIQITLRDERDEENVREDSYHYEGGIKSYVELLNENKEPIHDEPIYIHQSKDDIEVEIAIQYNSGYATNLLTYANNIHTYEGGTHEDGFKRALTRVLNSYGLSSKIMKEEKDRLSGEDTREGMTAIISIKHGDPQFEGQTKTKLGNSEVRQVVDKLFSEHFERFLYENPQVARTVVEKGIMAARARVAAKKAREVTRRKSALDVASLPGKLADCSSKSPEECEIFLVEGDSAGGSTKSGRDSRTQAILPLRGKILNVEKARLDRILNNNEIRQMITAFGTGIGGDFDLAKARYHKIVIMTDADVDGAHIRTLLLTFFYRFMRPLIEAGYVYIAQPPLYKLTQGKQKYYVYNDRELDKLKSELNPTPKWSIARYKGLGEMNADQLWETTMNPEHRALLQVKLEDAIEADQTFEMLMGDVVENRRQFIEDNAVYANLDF
T1 sequence (P20831 whole entry): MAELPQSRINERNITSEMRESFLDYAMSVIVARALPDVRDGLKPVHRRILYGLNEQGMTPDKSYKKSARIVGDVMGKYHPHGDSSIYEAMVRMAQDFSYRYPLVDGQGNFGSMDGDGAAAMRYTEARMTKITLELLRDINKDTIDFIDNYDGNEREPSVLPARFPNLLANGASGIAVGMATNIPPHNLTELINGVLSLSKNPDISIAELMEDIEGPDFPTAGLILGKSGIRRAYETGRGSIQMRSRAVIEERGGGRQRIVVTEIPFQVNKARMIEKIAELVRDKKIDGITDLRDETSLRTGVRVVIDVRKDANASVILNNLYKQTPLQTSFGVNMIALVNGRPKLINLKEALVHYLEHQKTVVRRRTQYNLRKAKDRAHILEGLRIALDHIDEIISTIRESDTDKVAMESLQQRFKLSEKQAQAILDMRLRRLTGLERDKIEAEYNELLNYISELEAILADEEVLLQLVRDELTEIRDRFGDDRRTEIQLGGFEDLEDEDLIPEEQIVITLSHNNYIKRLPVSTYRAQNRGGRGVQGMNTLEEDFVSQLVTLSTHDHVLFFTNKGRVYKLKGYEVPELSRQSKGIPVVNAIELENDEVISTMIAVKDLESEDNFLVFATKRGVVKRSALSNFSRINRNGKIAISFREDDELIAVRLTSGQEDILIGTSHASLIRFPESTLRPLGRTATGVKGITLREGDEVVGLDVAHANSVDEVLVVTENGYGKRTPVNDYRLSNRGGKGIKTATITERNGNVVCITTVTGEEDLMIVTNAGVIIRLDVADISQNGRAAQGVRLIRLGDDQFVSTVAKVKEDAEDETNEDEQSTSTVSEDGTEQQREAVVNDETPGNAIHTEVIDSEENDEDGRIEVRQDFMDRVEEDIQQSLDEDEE

O=C1c2ccccc2C(=O)c2sc(N3CCNCC3)nc21 [PNT, 2-(piperazin-1-yl)naphtho[2,3-d]thiazole-4,9-dione]
IC50: 372 µM
